Common to all, as to type: cell-based
The subject of assay [1] is GRB2-KO HeLa cells reconstituted with K109R mutant GRB2. Briefly: SRB assay of olaparib-induced cytotoxicity. The following applies: Homo sapiens, GRB2-KO cells reconstituted with K109R GRB2, sulforhodamine B assay. The text has this:
(§1) FIGS. 7A-7F. GRB2 KO sensitizes cells to PARPi. (FIG. 7A) MRE11 depletion levels with two different shRNA (KD1 and KD2) in U2OS cells with normal level of GRB2 (Ctrl) and GRB2-knockout (KO). (FIG. 7B) DR-GFP reporter assay in MRE11 knockdown control (Ctrl) and GRB2-KO U2OS cells. (FIG. 7C) DR-GFP reporter assay in PTEN-knockdown and/or GRB2-KO U2OS cells. (FIG. 7D) SRB assay of olaparib-induced cytotoxicity in control HeLa cells, GRB2-KO cells and GRB2-KO cells reconstituted with WT or K109R mutant GRB2. IC50 values are shown. (FIG. 7E) Clonogenic assay evaluating the effect of a PARPi on colony formation of HeLa cells. Cells were treated with the indicated concentrations of the PARPi olaparib and cultured for 10 days, then the resulting colonies were visualized with crystal violet staining and counted by Gelcount instrument. Parental control (WT), GRB2-KO (KO), ^WTGRB2 (KO+GRB2) and ^K109RGRB2 (KO+K109R) reconstituted HeLa cells. For each concentration on the X-axis, the columns represent, from left to right, WT, GRB2 KO, KO+GRB2, and KO+K109R. ***, p≤0.001; NS, not significant. (FIG. 7F) Bar graph representing Annexin-V/propidium iodide combined labeling and flow cytometry analysis of olaparib-treated control (WT), GRB2-KO, reconstituted ^WTGRB2(KO+GRB2) and K109R mutant (KO+K109R) HeLa cells. Cells were treated with either DMSO or 50 μM olaparib for 72 h. For each treatment group on the X-axis, the columns represent, from left to right, WT, GRB2 KO, KO+GRB2, and KO+K109R. All data are representative of three independent experiments. The significance was analyzed by two-sided student's t-test. *, p≤0.05; **, p≤0.01; ***, p≤0.001; NS, not significant.
(§2) Cell culture. HEK293T, NIH3T3 and A431 cells (purchased from ATCC) and mouse embryonic fibroblasts (MEFs) and H2AX-KO MEFs (gifts from Andre Nussenzweig, Center for Cancer Research, National Cancer Institute) were maintained in Dulbecco's modified Eagle's high-glucose medium (DMEM). HeLa cells (ATCC) were maintained in RPMI 1640 medium, HAP1 cells (Horizon Discovery) were maintained in Iscove's Modified Dulbecco's medium. U2OS cells (ATCC) were maintained in McCoy's 5A medium. Media were supplemented with 10% (vol/vol) fetal bovine serum (FBS) and 1% antibiotic/antimycotic (Lonza) in a humidified incubator with 10% CO2. Stable HEK293T cells containing Strep-tagged GRB2 or GRB2 mutants were produced as described previously (Ahmed et al., 2013). The I-SecI reporter assay (a generous gift from Jeremy Stark, City of Hope) was performed as described previously(Gunn and Stark, 2012). The sulforhodamine B (SRB) cytotoxicity and colony formation assays were performed as described previously(Houl et al., 2019).

Assay [2] deals with GRB2-KO HeLa cells reconstituted with WT GRB2. Briefly: SRB assay of olaparib-induced cytotoxicity. The following applies: Homo sapiens, GRB2-KO cells reconstituted with WT GRB2, sulforhodamine B assay.
Excerpt: as §1, §2
(Sulforhodamine B stains cellular protein and so reports cell mass.)

The subject of assay [3] is GRB2-KO HeLa cells. Briefly: SRB assay of olaparib-induced cytotoxicity. The conditions noted are these: sulforhodamine B assay.
Excerpt: as §1, §2

For another assay, the system named is control HeLa cells. Briefly: SRB assay of olaparib-induced cytotoxicity. The conditions noted are these: Homo sapiens; WT control HeLa cells, sulforhodamine B assay.
Excerpt: as §1, §2

For assay [4], the system named is GRB2-KO HeLa cells. The assay can be described thus: Annexin V/PI staining assay, flow cytometry. The following applies: 50 μM olaparib for 72 h.
Excerpt: as §1
(§3) Annexin V/PI staining assay. To determine the percentage of olaparib-induced apoptotic cells, an Annexin V-propidium iodide (PI) staining assay was used according to the standard protocol (Life Technologies). […] After incubation for 15 min at room temperature in the dark, samples were analyzed on a flow cytometer (FACSCanto IL, BD Biosciences) for the detection of Annexin V- and PI-positive subpopulations. […]

Assay [5] relates to K109R mutant (KO+K109R) HeLa cells. Briefly: Annexin V/PI staining assay, flow cytometry. The conditions noted are these: K109R GRB2 reconstituted cells, 50 μM olaparib for 72 h.
Excerpt: as §1, §3

A further assay relates to control (WT) HeLa cells. The assay can be described thus: Annexin V/PI staining assay, flow cytometry. The following applies: 50 μM olaparib for 72 h.
Excerpt: as §1, §3

The subject of assay [6] is GRB2-KO HeLa cells. Briefly: Clonogenic survival assay with olaparib. The following applies: cultured for 10 days.
Excerpt: as §1, with “significant. […]” for “significant. (FIG. 7F) Bar graph representing Annexin-V/propidium iodide combined labeling and flow cytometry analysis of olaparib-treated control (WT), GRB2-KO, reconstituted ^WTGRB2(KO+GRB2) and K109R mutant (KO+K109R) HeLa cells. Cells were treated with either DMSO or 50 μM olaparib for 72 h. For each treatment group on the X-axis, the columns represent, from left to right, WT, GRB2 KO, KO+GRB2, and KO+K109R. All data are representative of three independent experiments.”, “significant. […]” for “significant.”

Assay [7] relates to K109R GRB2 reconstituted HeLa cells. Briefly: Clonogenic survival assay with olaparib. The following applies: cultured for 10 days.
Excerpt: as §1, with “significant. […]” for “significant. (FIG. 7F) Bar graph representing Annexin-V/propidium iodide combined labeling and flow cytometry analysis of olaparib-treated control (WT), GRB2-KO, reconstituted ^WTGRB2(KO+GRB2) and K109R mutant (KO+K109R) HeLa cells. Cells were treated with either DMSO or 50 μM olaparib for 72 h. For each treatment group on the X-axis, the columns represent, from left to right, WT, GRB2 KO, KO+GRB2, and KO+K109R. All data are representative of three independent experiments.”, “significant. […]” for “significant.”

Usually IC50 stands for the concentration at which inhibition is half-maximal. Consider `O=C(c1cc(Cc2n[nH]c(=O)c3ccccc23)ccc1F)N1CCN(C(=O)C2CC2)CC1` [olaparib], for which the IC50 in [1] came to 20 ± 3 µM; in assay [2], 164 ± 47 µM; in the assay with GRB2-KO HeLa cells [3] (Homo sapiens, HeLa, GRB2-KO cells), 18 ± 2.9 µM; in the assay with control HeLa cells it was 124 ± 41 µM. Further, the “sensitivity to olaparib, GRB2-KO cells versus WT control cells” value in the assay on GRB2-KO HeLa cells [3] is given as 7 times. Further, the olaparib-induced apoptosis in the assay with GRB2-KO HeLa cells [4] is reported as 60%; in the assay on control (WT) HeLa cells, 20%. Besides, the olaparib-induced apoptosis phenotype entry in assay [5] is given as “failed to rescue the phenotype”. For the same compound, the “colony formation in response to olaparib” value (in the assay with GRB2-KO HeLa cells [6]; in [7]) was “severe reduction in colony formation” throughout.

Values taken from patent US20230366033A1, “METHODS FOR TREATING CANCERS WITH INHIBITORS TARGETING THE ROLE OF GRB2 IN DNA REPAIR” (Board of Regents, The University of Texas System, priority 2020, published 2023).
